# Data as given in patent US20260250257A1, “ANTIBACTERIAL AND SYNERGISTIC ACTIVE COMPOUND AND USE THEREOF” (EAST CHINA UNIVERSITY OF SCIENCE AND TECHNOLOGY, priority 2023, published 2026).
# How the values were obtained:
# Format in all cases: cell-based
# [1] = test system: ATCC25922 strain (Escherichia coli); test: Checkerboard antibacterial synergistic activity test with polymyxin E (FIC); design: key: FIC≤0.5 synergy; 0.5–1 additive; 1–2 indifferent; ≥2 antagonism; details: combined with polymyxin E
# Method in brief: (§1)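 Polymyxin E was diluted in MH broth to 16–0.015 μg/ml and the test compound to 256–4 μg/ml (two-fold series, pre-mixing concentrations), combined checkerboard-style in 96-well plates with bacterial suspension and blank controls, and incubated at 37° C. for 16 h. FIC ≤0.5 was scored synergistic, >0.5 to <1 additive, 1–2 indifferent, ≥2 antagonistic.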
# [2] = test system: ATCC19606 strain (Acinetobacter baumannii); test: as above; design: key: FIC≤0.5 synergy; 0.5–1 additive; 1–2 indifferent; ≥2 antagonism; details: combined with polymyxin E
# Method in brief: as §1
# [3] = test system: ATCC9027 strain (Pseudomonas aeruginosa); test: as above; design: key: FIC≤0.5 synergy; 0.5–1 additive; 1–2 indifferent; ≥2 antagonism; details: combined with polymyxin E
# Method in brief: as §1
# [4] = test system: ATCC13883 strain (Klebsiella pneumoniae); test: as above; design: key: FIC≤0.5 synergy; 0.5–1 additive; 1–2 indifferent; ≥2 antagonism; details: combined with polymyxin E
# Method in brief: as §1
# [5] = test system: ATCC25922 strain (Escherichia coli); test: Broth microdilution, antibacterial activity of the compound used alone
# Source text: (§2) The broth microdilution method was used to test the antibacterial effects of the compounds of the present invention against various Gram-negative bacterial strains when used alone.
# [6] = test system: ATCC19606 strain (Acinetobacter baumannii); test: as above
# Source text: as §2
# [7] = test system: ATCC9027 strain (Pseudomonas aeruginosa); test: as above
# Source text: as §2
# [8] = test system: ATCC13883 strain (Klebsiella pneumoniae); test: as above
# Source text: as §2
"MIC ([5]; read-out: Antibacterial activity of the compound of Formula I, ATCC25922)","MIC ([6]; read-out: Antibacterial activity of the compound of Formula I, ATCC19606)","MIC ([7]; read-out: Antibacterial activity of the compound of Formula I, ATCC9027)","MIC ([8]; read-out: Antibacterial activity of the compound of Formula I, ATCC13883)",SMILES,Synergistic activity (FIC value) ATCC25922 [1],Synergistic activity (FIC value) ATCC19606 [2],Synergistic activity (FIC value) ATCC9027 [3],Synergistic activity (FIC value) ATCC13883 [4],"Antibacterial activity of the compound of Formula I, ATCC25922 [5]","Antibacterial activity of the compound of Formula I, ATCC19606 [6]","Antibacterial activity of the compound of Formula I, ATCC9027 [7]","Antibacterial activity of the compound of Formula I, ATCC13883 [8]"
,,,,NC(N)=Nc1nc(-c2cc(I)cc(I)c2)c[se]1 [Compound I-34],1.25,0.75,1.25,1.25,256 µg/mL,256 µg/mL,256 µg/mL,256 µg/mL
,,,,COc1cccc(-c2csc(N=C(N)N)n2)c1 [Compound I-5],1.25,1.25,1.25,1.25,256 µg/mL,256 µg/mL,256 µg/mL,256 µg/mL
256 µg/mL,256 µg/mL,256 µg/mL,256 µg/mL,NC(N)=Nc1nc(-c2cccc3c2C(F)(F)c2cc(Br)ccc2-3)cs1 [Compound I-115],1.25,1.25,1.25,1.25,,,,
,,,,COc1ccc(-c2csc(N=C(N)N)n2)cc1 [Compound I-6],0.5,0.75,1.25,1.25,256 µg/mL,256 µg/mL,256 µg/mL,256 µg/mL
,,,,CC(C)=CCOc1cc(OCC=C(C)C)cc(-c2nc(N=C(N)N)[nH]c2C)c1 [Compound I-49],1.25,0.25,0.53,0.53,256 µg/mL,256 µg/mL,256 µg/mL,256 µg/mL
,,,,CSc1cc2c(Cl)cccn2c1-c1nc(N=C2NCCCN2)sc1Cl [Compound I-196],0.52,0.13,1.25,0.19,256 µg/mL,256 µg/mL,256 µg/mL,256 µg/mL
,,,,NC(N)=Nc1nc(-c2ccc(OCc3ccccc3)cc2)cs1 [Compound I-9],0.26,0.13,0.31,0.16,256 µg/mL,256 µg/mL,256 µg/mL,256 µg/mL
,,,,Cc1ccc(Oc2cccc(-c3coc(N=C(N)N)n3)c2)c(C)c1 [Compound I-92],0.04,0.38,0.04,0.19,256 µg/mL,256 µg/mL,256 µg/mL,256 µg/mL
,,,,Cc1ccccc1Oc1cccc(-c2csc(N=C(N)N)n2)c1 [Compound I-91],0.26,0.04,0.52,0.19,128 µg/mL,256 µg/mL,64 µg/mL,128 µg/mL
,,,,CSc1cc2cc(C)cc(C)n2c1-c1nc(N=C2NCCCN2)sc1C [Compound I-195],0.31,0.14,0.52,0.25,256 µg/mL,256 µg/mL,256 µg/mL,256 µg/mL
,,,,NC(N)=Nc1nc(-c2cccc(Oc3ccc(Cl)cc3Cl)c2)cs1 [Compound I-95],0.04,0.38,0.04,0.19,256 µg/mL,256 µg/mL,256 µg/mL,256 µg/mL
,,,,NC(N)=Nc1nc(-c2cccc3cc(Cl)ccc23)co1 [Compound I-64],0.63,0.52,1.25,0.52,256 µg/mL,256 µg/mL,256 µg/mL,256 µg/mL
,,,,Clc1cccc(-c2nc(N=C3NCCCN3)sc2Br)c1 [Compound I-185],1.25,0.75,1.25,1.25,256 µg/mL,256 µg/mL,256 µg/mL,256 µg/mL
,,,,COc1ccc(Oc2ccccc2-c2csc(N=C(N)N)n2)c(OC)c1 [Compound I-88],0.2,0.04,0.28,0.13,256 µg/mL,256 µg/mL,256 µg/mL,256 µg/mL
,,,,CC(C)(C)c1cc(-c2csc(N=C(N)N)n2)cc(C(C)(C)C)c1 [Compound I-13],0.39,0.15,0.62,0.33,256 µg/mL,256 µg/mL,256 µg/mL,256 µg/mL
,,,,Clc1cc(Oc2ccc(Cl)cc2Cl)cc(-c2csc(N=C3NCCCN3)n2)c1 [Compound I-160],0.18,0.03,0.28,0.16,256 µg/mL,256 µg/mL,256 µg/mL,256 µg/mL
,,,,CCOC(=O)c1ccc(-c2c[nH]c(N=C(N)N)n2)cc1 [Compound I-25],0.38,0.13,0.53,0.31,256 µg/mL,256 µg/mL,256 µg/mL,256 µg/mL
,,,,COc1ccc(Oc2ccccc2-c2csc(N=C3NCCCN3)n2)c(OC)c1 [Compound I-149],0.18,0.03,0.28,0.16,256 µg/mL,256 µg/mL,256 µg/mL,256 µg/mL
